On the set-up of data set [1]: species or system cynomolgus monkeys. Particulars: cynomolgus monkey, in vivo. How it is done: Subcutaneous (SC) dosing of the compounds in a vehicle of 0.1% bovine serum albumin in phosphate buffered saline solution was performed with male cynomolgus monkeys. […] Samples were obtained at 1, 4, 8, 12, 24, 48, 72, 96, 120, 168, 192, 240 and 336 hours after the single dose was administered.

The target of data set [2] is T1, human recombinant GIP receptor (Homo sapiens, UniProt P48546).
T1 sequence (P48546 22-466): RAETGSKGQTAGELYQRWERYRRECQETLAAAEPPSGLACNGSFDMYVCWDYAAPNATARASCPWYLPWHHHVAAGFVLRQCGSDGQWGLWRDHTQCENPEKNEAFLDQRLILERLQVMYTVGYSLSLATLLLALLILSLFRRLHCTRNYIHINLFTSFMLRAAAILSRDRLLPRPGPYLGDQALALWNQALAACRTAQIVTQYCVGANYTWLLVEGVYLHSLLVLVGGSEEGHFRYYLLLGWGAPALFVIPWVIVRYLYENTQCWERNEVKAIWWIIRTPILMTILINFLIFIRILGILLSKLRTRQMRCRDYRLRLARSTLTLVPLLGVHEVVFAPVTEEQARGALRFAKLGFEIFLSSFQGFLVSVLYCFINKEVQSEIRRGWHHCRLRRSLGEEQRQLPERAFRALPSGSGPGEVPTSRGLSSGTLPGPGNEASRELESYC
As to the kind of experiment: TagLite binding assay, GIP receptor, without and with 2% HSA. The source says: (§1) Binding data for Compounds 15-25, for two human recombinant G protein coupled receptors, GLP-1 and GIP, was obtained using […]® binding assay and Epics Therapeutics cell lines. The binding assay was repeated in the presence of 2% human serum albumin (HSA). Compounds 16, 21, and 22 have an HSA ratio for the GLP-1 receptor of 7.1, 7.6, and 7.8, respectively. Compounds 15, 18, and 23 have an HSA ratio for the GIP receptor of 7.3, 4.3, and 6.4, respectively. A lower HSA ratio indicates greater binding affinity for the receptor than for albumin when compared to a compound with a greater HSA ratio.

Data set [3] has as its target human recombinant GLP-1 receptor (Homo sapiens, UniProt P43220). As to the kind of experiment: TagLite binding assay, GLP-1 receptor, without and with 2% HSA.
Description: as §1

pIC50: −log10 of the molar value. Like-named read-outs stand apart in the source and are kept apart here. *1 amine or outer side, *2 acyl side, *3 side chain or, on linkers, in order; H or OH if unused. Where a SMILES comes first, the peptide text is derived from it. Side-chain parts run from the residue outwards. [ ]: non-standard residue; d: D form. The star is where a group is joined. Nonadecanoyl(19-PO3H2) = O=C(CCCCCCCCCCCCCCCCCCP(=O)(O)O)*; γGlu = O=C(O)[C@H](CCC(=O)[*:2])N[*:1]; AEEA = NCCOCCOCC(=O)O; Aib = CC(C)(N)C(=O)O

human recombinant GLP-1 receptor, sequence (P43220 24-463): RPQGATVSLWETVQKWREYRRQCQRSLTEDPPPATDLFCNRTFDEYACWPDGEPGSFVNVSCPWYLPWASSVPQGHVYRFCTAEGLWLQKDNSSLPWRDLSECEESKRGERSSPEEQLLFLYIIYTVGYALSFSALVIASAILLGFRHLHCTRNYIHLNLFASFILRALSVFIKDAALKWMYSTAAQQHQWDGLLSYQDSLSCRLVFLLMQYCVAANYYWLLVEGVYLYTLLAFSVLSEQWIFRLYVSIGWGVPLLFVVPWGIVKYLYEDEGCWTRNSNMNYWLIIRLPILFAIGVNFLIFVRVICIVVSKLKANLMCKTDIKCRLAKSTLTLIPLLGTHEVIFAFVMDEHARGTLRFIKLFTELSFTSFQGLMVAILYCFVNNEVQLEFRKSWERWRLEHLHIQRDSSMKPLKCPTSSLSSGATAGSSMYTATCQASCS

On to `CC[C@H](C)[C@H](NC(=O)[C@H](CC(C)C)NC(=O)[C@H](Cc1c[nH]c2ccccc12)NC(=O)[C@H](CCC(N)=O)NC(=O)[C@@H](NC(=O)[C@H](Cc1ccccc1)NC(=O)[C@H](C)NC(=O)[C@H](CCC(N)=O)NC(=O)[C@H](CCC(N)=O)NC(=O)[C@H](C)NC(=O)[C@@H](NC(=O)[C@H](CCCCNC(=O)COCCOCCNC(=O)COCCOCCNC(=O)CC[C@H](NC(=O)CCCCCCCCCCCCCCCCCCP(=O)(O)O)C(=O)O)NC(=O)[C@H](CC(=O)O)NC(=O)[C@H](CC(C)C)NC(=O)C(C)(C)NC(=O)[C@@H](NC(=O)[C@H](CO)NC(=O)[C@H](Cc1ccc(O)cc1)NC(=O)[C@H](CC(=O)O)NC(=O)[C@H](CO)NC(=O)[C@@H](NC(=O)[C@H](Cc1ccccc1)NC(=O)[C@@H](NC(=O)CNC(=O)[C@H](CCC(=O)O)NC(=O)C(C)(C)NC(=O)[C@@H](N)Cc1ccc(O)cc1)[C@@H](C)O)[C@@H](C)O)[C@@H](C)CC)[C@@H](C)CC)C(C)C)C(=O)N[C@@H](C)C(=O)NCC(=O)NCC(=O)N1CCC[C@H]1C(=O)N[C@@H](CO)C(=O)N[C@@H](CO)C(=O)NCC(=O)N[C@@H](C)C(=O)N1CCC[C@H]1C(=O)N1CCC[C@H]1C(=O)N1CCC[C@H]1C(=O)N[C@@H](CO)C(N)=O` [Compound 15] (H-Y[Aib]EGTFTSDYSI[Aib]LDK([AEEA-AEEA-γGlu-Nonadecanoyl(19-PO3H2)])IAQQAFVQWLIAGGPSSGAPPPS-NH2), for which, in data set [1] (sc, 0.2 mg/kg), the total exposure AUC(0-inf) came to 185 µg·h/mL, the AUC(0-t) is 182 µg·h/mL, the Cmax turned out to be 2520 ng/mL and the Tmax is 9.33 h. The half-life in data set [1] (sc, 0.2 mg/kg) is 60 h. Moreover, the pIC50 in data set [2] (2% human serum albumin, read-out: GIP receptor IC50 2% HSA) is 6.09. Moreover, the pIC50 in data set [2] (no HSA, read-out: GIP receptor IC50 No HSA) is 6.96. In data set [3] (2% human serum albumin, read-out: GLP-1 receptor IC50 2% HSA), the pIC50 is 5.42. The pIC50 in data set [3] (no HSA, read-out: GLP-1 receptor IC50 No HSA) was 6.46.
For the molecule `CC[C@H](C)[C@H](NC(=O)[C@H](CC(C)C)NC(=O)[C@H](Cc1c[nH]c2ccccc12)NC(=O)[C@H](CCC(N)=O)NC(=O)[C@@H](NC(=O)[C@H](Cc1ccccc1)NC(=O)[C@H](C)NC(=O)[C@H](CCCCNC(=O)COCCOCCNC(=O)COCCOCCNC(=O)CC[C@H](NC(=O)CCCCCCCCCCCCCCCCCCP(=O)(O)O)C(=O)O)NC(=O)[C@H](CCC(N)=O)NC(=O)[C@H](C)NC(=O)[C@@H](NC(=O)[C@H](CCCNC(=N)N)NC(=O)[C@H](CC(=O)O)NC(=O)[C@H](CC(C)C)NC(=O)C(C)(C)NC(=O)[C@@H](NC(=O)[C@H](CO)NC(=O)[C@H](Cc1ccc(O)cc1)NC(=O)[C@H](CC(=O)O)NC(=O)[C@H](CO)NC(=O)[C@@H](NC(=O)[C@H](Cc1ccccc1)NC(=O)[C@@H](NC(=O)CNC(=O)[C@H](CCC(=O)O)NC(=O)C(C)(C)NC(=O)[C@@H](N)Cc1ccc(O)cc1)[C@@H](C)O)[C@@H](C)O)[C@@H](C)CC)[C@@H](C)CC)C(C)C)C(=O)N[C@@H](C)C(=O)NCC(=O)NCC(=O)N1CCC[C@H]1C(=O)N[C@@H](CO)C(=O)N[C@@H](CO)C(=O)NCC(=O)N[C@@H](C)C(=O)N1CCC[C@H]1C(=O)N1CCC[C@H]1C(=O)N1CCC[C@H]1C(=O)N[C@@H](CO)C(N)=O` [Compound 16] (H-Y[Aib]EGTFTSDYSI[Aib]LDRIAQK([AEEA-AEEA-γGlu-Nonadecanoyl(19-PO3H2)])AFVQWLIAGGPSSGAPPPS-NH2), in data set [1] (sc, 0.2 mg/kg), the AUC(0-inf) was found to be 144 µg·h/mL, the AUC(0-t) worked out at 138 µg·h/mL, the Cmax is 1570 ng/mL and the Tmax worked out at 9.33 h. This molecule showed a half-life in data set [1] (sc, 0.2 mg/kg) of 70.1 h.
Turning to `CC[C@H](C)[C@H](NC(=O)[C@H](CC(C)C)NC(=O)[C@H](Cc1c[nH]c2ccccc12)NC(=O)[C@H](CC(N)=O)NC(=O)[C@@H](NC(=O)[C@H](Cc1ccccc1)NC(=O)[C@H](C)NC(=O)[C@H](CCC(N)=O)NC(=O)[C@H](CCCCNC(=O)COCCOCCNC(=O)COCCOCCNC(=O)CC[C@H](NC(=O)CCCCCCCCCCCCCCCCCCP(=O)(O)O)C(=O)O)NC(=O)[C@H](C)NC(=O)[C@@H](NC(=O)[C@H](CCCCN)NC(=O)[C@H](CC(=O)O)NC(=O)[C@H](CC(C)C)NC(=O)C(C)(C)NC(=O)[C@@H](NC(=O)[C@H](CO)NC(=O)[C@H](Cc1ccc(O)cc1)NC(=O)[C@H](CC(=O)O)NC(=O)[C@H](CO)NC(=O)[C@@H](NC(=O)[C@H](Cc1ccccc1)NC(=O)[C@@H](NC(=O)CNC(=O)[C@H](CCC(=O)O)NC(=O)C(C)(C)NC(=O)[C@@H](N)Cc1ccc(O)cc1)[C@@H](C)O)[C@@H](C)O)[C@@H](C)CC)[C@@H](C)CC)C(C)C)C(=O)N[C@@H](C)C(=O)NCC(=O)NCC(=O)N1CCC[C@H]1C(=O)N[C@@H](CO)C(=O)N[C@@H](CO)C(=O)NCC(=O)N[C@@H](C)C(=O)N1CCC[C@H]1C(=O)N1CCC[C@H]1C(=O)N1CCC[C@H]1C(=O)N[C@@H](CO)C(N)=O` [Compound 22] (H-Y[Aib]EGTFTSDYSI[Aib]LDKIAK([AEEA-AEEA-γGlu-Nonadecanoyl(19-PO3H2)])QAFVNWLIAGGPSSGAPPPS-NH2), in data set [1] (sc, 0.2 mg/kg), the AUC(0-inf) was found to be 510 µg·h/mL, the AUC(0-t) stood at 417 µg·h/mL, the Cmax stood at 2380 ng/mL and the Tmax was determined as 33.3 h. For the same molecule, in data set [1] (sc, 0.2 mg/kg), the half-life was 137 h, the “mean half life as compared to tirzepatide (in words)” value is listed as “more than twice an long as compared to tirzepatide” and the “mean half life longer compared to tirzepatide” value is “at least 50%”.
For `CC[C@H](C)[C@H](NC(=O)[C@H](CC(C)C)NC(=O)[C@H](Cc1c[nH]c2ccccc12)NC(=O)[C@H](CCC(N)=O)NC(=O)[C@@H](NC(=O)[C@H](Cc1ccccc1)NC(=O)[C@H](C)NC(=O)[C@H](CCCCNC(=O)COCCOCCNC(=O)COCCOCCNC(=O)CC[C@H](NC(=O)CCCCCCCCCCCCCCCCCCP(=O)(O)O)C(=O)O)NC(=O)[C@H](CCC(N)=O)NC(=O)[C@H](C)NC(=O)[C@@H](NC(=O)[C@H](CCCCN)NC(=O)[C@H](CC(=O)O)NC(=O)[C@H](CC(C)C)NC(=O)C(C)(C)NC(=O)[C@@H](NC(=O)[C@H](CO)NC(=O)[C@H](Cc1ccc(O)cc1)NC(=O)[C@H](CC(=O)O)NC(=O)[C@H](CO)NC(=O)[C@@H](NC(=O)[C@H](Cc1ccccc1)NC(=O)[C@@H](NC(=O)CNC(=O)[C@H](CCC(=O)O)NC(=O)C(C)(C)NC(=O)[C@@H](N)Cc1ccc(O)cc1)[C@@H](C)O)[C@@H](C)O)[C@@H](C)CC)C(C)C)C(C)C)C(=O)N[C@@H](CCCNC(=N)N)C(=O)NCC(=O)NCC(=O)N1CCC[C@H]1C(=O)N[C@@H](CO)C(=O)N[C@@H](CO)C(=O)NCC(=O)N[C@@H](C)C(=O)N1CCC[C@H]1C(=O)N1CCC[C@H]1C(=O)N1CCC[C@H]1C(=O)N[C@@H](CO)C(N)=O` [Compound 25] (H-Y[Aib]EGTFTSDYSI[Aib]LDKVAQK([AEEA-AEEA-γGlu-Nonadecanoyl(19-PO3H2)])AFVQWLIRGGPSSGAPPPS-NH2), in data set [1], the AUC(0-inf) stood at 287 µg·h/mL, the AUC(0-t) was found to be 272 µg·h/mL, the Cmax came to 1570 ng/mL and the Tmax worked out at 24 h. Moreover, the half-life in data set [1] was 117 h.
Regarding `CC[C@H](C)[C@H](NC(=O)[C@H](CC(C)C)NC(=O)[C@H](Cc1c[nH]c2ccccc12)NC(=O)[C@H](CCC(N)=O)NC(=O)[C@@H](NC(=O)[C@H](Cc1ccccc1)NC(=O)[C@H](C)NC(=O)[C@H](CCCCNC(=O)COCCOCCNC(=O)COCCOCCNC(=O)CC[C@H](NC(=O)CCCCCCCCCCCCCCCCCCC(=O)O)C(=O)O)NC(=O)[C@H](CCC(N)=O)NC(=O)[C@H](C)NC(=O)[C@@H](NC(=O)[C@H](CCCCN)NC(=O)[C@H](CC(=O)O)NC(=O)[C@H](CC(C)C)NC(=O)C(C)(C)NC(=O)[C@@H](NC(=O)[C@H](CO)NC(=O)[C@H](Cc1ccc(O)cc1)NC(=O)[C@H](CC(=O)O)NC(=O)[C@H](CO)NC(=O)[C@@H](NC(=O)[C@H](Cc1ccccc1)NC(=O)[C@@H](NC(=O)CNC(=O)[C@H](CCC(=O)O)NC(=O)C(C)(C)NC(=O)[C@@H](N)Cc1ccc(O)cc1)[C@@H](C)O)[C@@H](C)O)[C@@H](C)CC)[C@@H](C)CC)C(C)C)C(=O)N[C@@H](C)C(=O)NCC(=O)NCC(=O)N1CCC[C@H]1C(=O)N[C@@H](CO)C(=O)N[C@@H](CO)C(=O)NCC(=O)N[C@@H](C)C(=O)N1CCC[C@H]1C(=O)N1CCC[C@H]1C(=O)N1CCC[C@H]1C(=O)N[C@@H](CO)C(N)=O` [TRZ, Tirzepatide, reference compound], in data set [1] (sc, 0.2 mg/kg), the AUC(0-inf) is 242 µg·h/mL, the AUC(0-t) came out at 237 µg·h/mL, the Cmax worked out at 2250 ng/mL and the Tmax came to 40 h. In addition, the half-life in data set [1] (sc, 0.2 mg/kg) was 57.1 h.

As a reminder, the AUC(0-inf) is total exposure, with the tail of the curve extrapolated. Read a high AUC(0-inf) as more exposure. In general, AUC(0-t) refers to the area under the concentration-time curve up to a stated or last time point. A low value points to low exposure. A word on the Cmax: it is the maximum level reached in the sampled fluid or tissue. For orientation: Tmax means the time at which the peak concentration occurs. A word on the half-life: it is how long it takes for the measured level to halve. Higher therefore signals slow decline. What is called pIC50 is −log10 of the IC50, conventionally taken in molar units.

The values above are taken from patent US12421282B2, “Compositions and methods for the treatment of metabolic and liver disorders” (priority 2021, dated 2025).
